Source: ChEMBL document CHEMBL1201862, “PubChem BioAssay data set” (2004)
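How tested: cells in 96-well plates exposed to compound for 48 hours at five concentrations. The concentration for 50% growth inhibition is given as GI50.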 Active and inactive are the calls of the source. Cut-off read from the data, not from the text of the source: active = GI50 up to about 1.1 µM and inactive = higher.

Experiments:
Test in all cases: NCI anticancer screen, dose series, 48 h
CCRF-CEM = system: CCRF-CEM
HCT-116 = system: HCT-116
HCT-15 = system: HCT-15
HOP-62 = system: HOP-62
HOP-92 = system: HOP-92
IGROV-1 = system: IGROV-1
KM12 = system: KM12
NCI-H23 = system: NCI-H23
OVCAR-4 = system: OVCAR-4
SF-539 = system: SF-539
SN12C = system: SN12C
UACC-62 = system: UACC-62
CAKI-1 = system: CAKI-1
DU-145 = system: DU-145
MDA-N = system: MDA-N
NCI-H226 = system: NCI-H226
NCI/ADR-RES = system: NCI/ADR-RES
SF-295 = system: SF-295
T47D = system: T47D
NCI-H522 = system: NCI-H522

Row | Compound | GI50 (CCRF-CEM) | GI50 (HCT-116) | GI50 (HCT-15) | GI50 (HOP-62) | GI50 (HOP-92) | GI50 (IGROV-1) | GI50 (KM12) | GI50 (NCI-H23) | GI50 (OVCAR-4) | GI50 (SF-539) | GI50 (SN12C) | GI50 (UACC-62) | GI50 (CAKI-1) | GI50 (DU-145) | GI50 (MDA-N) | GI50 (NCI-H226) | GI50 (NCI/ADR-RES) | GI50 (SF-295) | GI50 (T47D) | GI50 (NCI-H522)
1 | CCCc1[nH]c(SCCCCCCCCSc2nc(-c3ccc(F)cc3)c(CCC)[nH]2)nc1-c1ccc(F)cc1 | 6.59 µM (inactive) | 5.42 µM (inactive) | 7 µM | 15.2 µM (inactive) | 3.8 µM (inactive) | 37.7 µM (inactive) | 35.2 µM (inactive) | 4.49 µM (inactive) | 10.3 µM (inactive) | 6.21 µM (inactive) | 9.42 µM (inactive) | 5.58 µM (inactive) |  |  |  |  |  |  |  | 
2 | CC/C=C(\C(=C/CC)[N+](=O)[O-])[N+](=O)[O-] | 8.22 µM (inactive) | 19.9 µM (inactive) |  | 58.2 µM (inactive) | 23.7 µM (inactive) | 17.6 µM (inactive) | > 10 µM (inactive) | 18.9 µM (inactive) | 22.8 µM (inactive) | 21.3 µM (inactive) | 18.9 µM (inactive) | 18 µM (inactive) | 23.2 µM (inactive) | 21.3 µM (inactive) | 22.8 µM (inactive) | 95.5 µM (inactive) | 20.7 µM (inactive) | > 100 µM (inactive) | 28.4 µM (inactive) | 
3 | CCCCCCOP(=O)(OCCCCCC)C(NC(=O)OCC)(C(F)(F)F)C(F)(F)F | 42.1 µM (inactive) | 27.4 µM (inactive) | 30.4 µM | > 100 µM (inactive) | 28.4 µM (inactive) | 34 µM (inactive) | 39.1 µM (inactive) |  |  | 36.3 µM (inactive) | 34 µM (inactive) | 41.6 µM (inactive) | 51.6 µM (inactive) | 93.1 µM (inactive) | 36 µM (inactive) | 24.9 µM (inactive) | 28.8 µM (inactive) | 30.3 µM (inactive) | 39.5 µM (inactive) | 28.1 µM (inactive)
4 | COc1ccc(CCn2ccc(C)n2)c(OC)c1 | > 100 µM (inactive) | > 100 µM (inactive) | > 100 µM | > 100 µM (inactive) |  | > 100 µM (inactive) | > 100 µM (inactive) | > 100 µM (inactive) | > 100 µM (inactive) | > 100 µM (inactive) | 46 µM (inactive) | 90.8 µM (inactive) | > 100 µM (inactive) | > 100 µM (inactive) | > 100 µM (inactive) |  | 90.2 µM (inactive) | > 100 µM (inactive) | 68.9 µM (inactive) | 
5 | CSCCC(NC(=O)OCc1ccccc1)NC(=O)OCc1ccccc1 | > 10 µM (inactive) | > 100 µM (inactive) | > 100 µM | > 100 µM (inactive) | > 100 µM (inactive) | > 100 µM (inactive) |  | > 100 µM (inactive) | > 100 µM (inactive) |  | > 100 µM (inactive) |  | > 100 µM (inactive) | > 100 µM (inactive) | > 100 µM (inactive) | > 100 µM (inactive) | > 100 µM (inactive) | > 100 µM (inactive) | 59.8 µM (inactive) | > 100 µM (inactive)
6 | COc1cc(C=O)cc(/C=N/c2ccc(S(N)(=O)=O)cc2)c1O | 9.77 µM (inactive) | 18.2 µM (inactive) | 63.1 µM | 13.5 µM (inactive) | 2.86 µM (inactive) | > 100 µM (inactive) | 27.7 µM (inactive) | > 100 µM (inactive) | > 100 µM (inactive) | 2.93 µM (inactive) | 6.65 µM (inactive) | 23.8 µM (inactive) | 7.38 µM (inactive) | 40.1 µM (inactive) | 5.6 µM (inactive) | 4.3 µM (inactive) | 10.5 µM (inactive) | 3.64 µM (inactive) | 14.3 µM (inactive) | 21.2 µM (inactive)
